Measured values taken from ChEMBL document CHEMBL3885881, “DrugMatrix”.

Organism: Rattus norvegicus
Assay: DrugMatrix - Regimen: Daily Repeat
Format: toxicity, organism-based, Sprague-Dawley
Set-up: regimen Daily Repeat, gender Male, age 6-8 weeks
Conditions: in vivo, po, route oral GAVAGE, vehicle .5 % CMC; for BASOPHIL / EOSINOPHIL / ERYTHROCYTE COUNT / HEMATOCRIT / HEMOGLOBIN / LEUKOCYTE COUNT / LYMPHOCYTE / MEAN CORPUSCULAR HEMOGLOBIN / MEAN CORPUSCULAR HEMOGLOBIN CONCENTRATION / MEAN CORPUSCULAR VOLUME / MONOCYTE / NEUTROPHIL / PLATELET COUNT: tissue Blood; for ALANINE AMINOTRANSFERASE / ALBUMIN / ALKALINE PHOSPHATASE / ASPARTATE AMINOTRANSFERASE / BLOOD UREA NITROGEN / CHLORIDE / CHOLESTEROL / CREATINE PHOSPHOKINASE / CREATININE / GLUCOSE / PHOSPHORUS / POTASSIUM / SODIUM / TOTAL PROTEIN: tissue Plasma
[1] = 0 mg/kg, 72 h, dose level Control, time 3 day
[2] = 0 mg/kg, 120 h, dose level Control, time 5 day
[3] = 30 mg/kg, 72 h, dose level Low, time 3 day
[4] = 30 mg/kg, 120 h, dose level Low, time 5 day
[5] = 1750 mg/kg, 72 h, dose level High, time 3 day
[6] = 1750 mg/kg, 120 h, dose level High, time 5 day

## CC(=O)Oc1ccc(C(c2ccc(OC(C)=O)cc2)c2ccccn2)cc1 [BISACODYL]
[1]
  BASOPHIL: 0%
  EOSINOPHIL: 0.33%
  ERYTHROCYTE COUNT: 6.03 x10E6/uL
  HEMATOCRIT: 38.8%
  HEMOGLOBIN: 14.26 G/DL
  LEUKOCYTE COUNT: 10.64 x10E3/uL
  LYMPHOCYTE: 83.33%
  MEAN CORPUSCULAR HEMOGLOBIN: 23.64 pg
  MEAN CORPUSCULAR HEMOGLOBIN CONCENTRATION: 36.74 G/DL
  MEAN CORPUSCULAR VOLUME: 64.32 fL
  MONOCYTE: 3.33%
  NEUTROPHIL: 13%
  PLATELET COUNT: 1264.4 x10E3/uL
  ALANINE AMINOTRANSFERASE: 38.83 u/L
  ALBUMIN: 3.55 G/DL
  ALKALINE PHOSPHATASE: 368.33 u/L
  ASPARTATE AMINOTRANSFERASE: 66.17 u/L
  BLOOD UREA NITROGEN: 15.67 mg/dL
  CHLORIDE: 104.33 MEQ/L
  CHOLESTEROL: 76.5 mg/dL
  CREATINE PHOSPHOKINASE: 166.83 u/L
  CREATININE: 0.52 mg/dL
  GLUCOSE: 173.17 mg/dL
  PHOSPHORUS: 11.68 mg/dL
  POTASSIUM: 6.43 MEQ/L
  SODIUM: 149.5 MEQ/L
  TOTAL PROTEIN: 5.93 G/DL
[2]
  BASOPHIL: 0%
  EOSINOPHIL: 0%
  ERYTHROCYTE COUNT: 5.88 x10E6/uL
  HEMATOCRIT: 37.87%
  HEMOGLOBIN: 14.48 G/DL
  LEUKOCYTE COUNT: 12.43 x10E3/uL
  LYMPHOCYTE: 84.17%
  MEAN CORPUSCULAR HEMOGLOBIN: 24.65 pg
  MEAN CORPUSCULAR HEMOGLOBIN CONCENTRATION: 38.25 G/DL
  MEAN CORPUSCULAR VOLUME: 64.47 fL
  MONOCYTE: 4.33%
  NEUTROPHIL: 11.5%
  PLATELET COUNT: 1182.33 x10E3/uL
  ALANINE AMINOTRANSFERASE: 38.67 u/L
  ALBUMIN: 3.55 G/DL
  ALKALINE PHOSPHATASE: 342.5 u/L
  ASPARTATE AMINOTRANSFERASE: 63.33 u/L
  BLOOD UREA NITROGEN: 15.5 mg/dL
  CHLORIDE: 104 MEQ/L
  CHOLESTEROL: 75.5 mg/dL
  CREATINE PHOSPHOKINASE: 142.5 u/L
  CREATININE: 0.62 mg/dL
  GLUCOSE: 165.17 mg/dL
  PHOSPHORUS: 10.87 mg/dL
  POTASSIUM: 6.85 MEQ/L
  SODIUM: 150.17 MEQ/L
  TOTAL PROTEIN: 5.93 G/DL
[3]
  BASOPHIL: 0%
  EOSINOPHIL: 0%
  ERYTHROCYTE COUNT: 6.9 x10E6/uL
  HEMATOCRIT: 44.1%
  HEMOGLOBIN: 16.25 G/DL
  LEUKOCYTE COUNT: 9.75 x10E3/uL
  LYMPHOCYTE: 83%
  MEAN CORPUSCULAR HEMOGLOBIN: 23.55 pg
  MEAN CORPUSCULAR HEMOGLOBIN CONCENTRATION: 36.85 G/DL
  MEAN CORPUSCULAR VOLUME: 63.85 fL
  MONOCYTE: 4%
  NEUTROPHIL: 13%
  PLATELET COUNT: 1188.5 x10E3/uL
  ALANINE AMINOTRANSFERASE: 37.67 u/L
  ALBUMIN: 3.67 G/DL
  ALKALINE PHOSPHATASE: 281 u/L
  ASPARTATE AMINOTRANSFERASE: 63 u/L
  BLOOD UREA NITROGEN: 17 mg/dL
  CHLORIDE: 107 MEQ/L
  CHOLESTEROL: 72 mg/dL
  CREATINE PHOSPHOKINASE: 177 u/L
  CREATININE: 0.53 mg/dL
  GLUCOSE: 181 mg/dL
  PHOSPHORUS: 12.17 mg/dL
  POTASSIUM: 7.3 MEQ/L
  SODIUM: 152 MEQ/L
  TOTAL PROTEIN: 6.1 G/DL
[4]
  BASOPHIL: 0%
  EOSINOPHIL: 0.67%
  ERYTHROCYTE COUNT: 6.91 x10E6/uL
  HEMATOCRIT: 43.53%
  HEMOGLOBIN: 16.47 G/DL
  LEUKOCYTE COUNT: 13.9 x10E3/uL
  LYMPHOCYTE: 85%
  MEAN CORPUSCULAR HEMOGLOBIN: 23.9 pg
  MEAN CORPUSCULAR HEMOGLOBIN CONCENTRATION: 37.97 G/DL
  MEAN CORPUSCULAR VOLUME: 63 fL
  MONOCYTE: 3.33%
  NEUTROPHIL: 11%
  PLATELET COUNT: 1208 x10E3/uL
  ALANINE AMINOTRANSFERASE: 36.67 u/L
  ALBUMIN: 3.53 G/DL
  ALKALINE PHOSPHATASE: 306.33 u/L
  ASPARTATE AMINOTRANSFERASE: 66 u/L
  BLOOD UREA NITROGEN: 19 mg/dL
  CHLORIDE: 106.33 MEQ/L
  CHOLESTEROL: 70.33 mg/dL
  CREATINE PHOSPHOKINASE: 149.33 u/L
  CREATININE: 0.53 mg/dL
  GLUCOSE: 193.33 mg/dL
  PHOSPHORUS: 12.23 mg/dL
  POTASSIUM: 6.8 MEQ/L
  SODIUM: 151.67 MEQ/L
  TOTAL PROTEIN: 5.7 G/DL
[5]
  BASOPHIL: 0%
  EOSINOPHIL: 0%
  ERYTHROCYTE COUNT: 7.45 x10E6/uL
  HEMATOCRIT: 45.8%
  HEMOGLOBIN: 17.43 G/DL
  LEUKOCYTE COUNT: 12.3 x10E3/uL
  LYMPHOCYTE: 35.67%
  MEAN CORPUSCULAR HEMOGLOBIN: 23.5 pg
  MEAN CORPUSCULAR HEMOGLOBIN CONCENTRATION: 38.13 G/DL
  MEAN CORPUSCULAR VOLUME: 61.47 fL
  MONOCYTE: 13.67%
  NEUTROPHIL: 50.67%
  PLATELET COUNT: 1194 x10E3/uL
  ALANINE AMINOTRANSFERASE: 34 u/L
  ALBUMIN: 4.3 G/DL
  ALKALINE PHOSPHATASE: 166 u/L
  ASPARTATE AMINOTRANSFERASE: 53 u/L
  BLOOD UREA NITROGEN: 64 mg/dL
  CHLORIDE: 84 MEQ/L
  CHOLESTEROL: 44 mg/dL
  CREATINE PHOSPHOKINASE: 148 u/L
  CREATININE: 0.7 mg/dL
  GLUCOSE: 165 mg/dL
  PHOSPHORUS: 9.4 mg/dL
  POTASSIUM: 8.2 MEQ/L
  SODIUM: 131 MEQ/L
  TOTAL PROTEIN: 7.9 G/DL
[6]
  BASOPHIL: 0%
  EOSINOPHIL: 0%
  ERYTHROCYTE COUNT: 7.22 x10E6/uL
  HEMATOCRIT: 44.95%
  HEMOGLOBIN: 16.55 G/DL
  LEUKOCYTE COUNT: 14.05 x10E3/uL
  LYMPHOCYTE: 38%
  MEAN CORPUSCULAR HEMOGLOBIN: 22.95 pg
  MEAN CORPUSCULAR HEMOGLOBIN CONCENTRATION: 36.8 G/DL
  MEAN CORPUSCULAR VOLUME: 62.3 fL
  MONOCYTE: 6.5%
  NEUTROPHIL: 55.5%
  PLATELET COUNT: 1469 x10E3/uL
  ALANINE AMINOTRANSFERASE: 29 u/L
  ALBUMIN: 3.9 G/DL
  ALKALINE PHOSPHATASE: 258 u/L
  ASPARTATE AMINOTRANSFERASE: 36 u/L
  BLOOD UREA NITROGEN: 37 mg/dL
  CHLORIDE: 102.5 MEQ/L
  CHOLESTEROL: 71 mg/dL
  CREATINE PHOSPHOKINASE: 190 u/L
  CREATININE: 0.7 mg/dL
  GLUCOSE: 183 mg/dL
  PHOSPHORUS: 12.1 mg/dL
  POTASSIUM: 8 MEQ/L
  SODIUM: 147.5 MEQ/L
  TOTAL PROTEIN: 7.6 G/DL
